Source: ChEMBL document CHEMBL4627250, “Suitable fusion of N-terminal heptad repeats to achieve covalently stabilized potent N-peptide inhibitors of HIV-1 infection” (Bioorg Med Chem, 2020)

Experiment: Thermal stability of compound assessed as melting temperature at 10 uM
Format: physicochemical

Which Tm does the source give for “H-RIQQIEQKIHHIEQRIQQIEQLLQLTVWGIKQLQARIL-OH” here?
The Tm was 72 °C.

Which Tm does the source give for “H-RIQQIEQKIHHIEQRIQQIEQRIEAQQHLLQLTVWGIKQLQARIL-OH” here?
Its Tm is 74 °C.

Which Tm does the source give for “H-RIQQIEQKIHHIEQRIQQIEQRISGIVQQQNNLLRIEAQQHLLQLTVWGIKQLQARIL-OH” here?
Its Tm is 82 °C.
